Experimental findings from patent EP3409278B1, “HETEROCYCLIC PROTEIN KINASE INHIBITORS” (Tolero Pharmaceuticals, Inc., priority 2011, dated 2013) are described below.

Where two headings read alike, the source gives them in different places.

This assay concerns the target Pim-1 kinase (Homo sapiens, UniProt P11309). The assay is described as follows: Pim-1 kinase inhibition assay (Promega Kinase-Glo). Type of assay: biochemical. An excerpt: One illustrative manner in which Pim-1 kinase activity can be determined is by quantifying the amount of ATP remaining in solution after an in vitro Pim-1 kinase reaction. The Kinase-Glo Assay Kit (Promega, Inc., Madison, WI) allows this. The amount of ATP remaining in the solution after the kinase reaction serves as a substrate for the luciferase to catalyze luciferin to oxyluciferin plus one photon of light. Thus, the luminescent signal read by the Luminoskan Ascent Instrument (Thermo Electron Corp., Milford, MA) correlates with the amount of ATP present after the kinase reaction and inversely correlates with the amount of kinase acitivity. […] These assays are set up in duplicate 50ul volumes in white, flat bottom 96 well plates. […] This solution is incubated at 30 degrees Celsius at 360rpm for two hours. Following the incubation, 50ul of Kinase-Glo reagent is added to each well, including all positive and negative control wells, and incubated at room temperature for 15 minutes. […] The IC50 values can then be calculated for each inhibitor tested.
(Kinase-Glo reads ATP consumption through a luciferase reaction.)

The mark [1] stands for this setting: Table IV, Kinase-Glo, 10uM ATP, read-out: IC50 on Pim1.
Setting [2] is: Table V, cells that print µM, read-out: IC50 on Pim1.
[3] abbreviates: Table V, Kinase-Glo, 10uM ATP, read-out: IC50 on Pim1.

Chain of Pim-1 kinase (P11309 whole entry): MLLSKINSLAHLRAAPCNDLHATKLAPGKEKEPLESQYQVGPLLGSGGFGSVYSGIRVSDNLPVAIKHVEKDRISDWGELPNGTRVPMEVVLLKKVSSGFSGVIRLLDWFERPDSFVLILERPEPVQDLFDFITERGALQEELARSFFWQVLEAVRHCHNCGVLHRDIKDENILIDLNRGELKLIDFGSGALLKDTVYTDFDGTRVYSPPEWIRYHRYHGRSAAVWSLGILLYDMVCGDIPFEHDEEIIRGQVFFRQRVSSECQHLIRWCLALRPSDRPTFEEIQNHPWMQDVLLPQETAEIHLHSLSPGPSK

Regarding `CC1(O)CCC(Nc2ccn3ncc(-c4cccc(C(F)(F)F)c4)c3n2)CC1` (single isomer, unassigned) [8-55, 1-Methyl-4-((3-(3-(trifluoromethyl)phenyl)pyrazolo[1,5-a]pyrimidin-5-yl)amino)-trans-cyclohexanol], the IC50 under setting [1] turned out to be 0.054 µM.
`O=S1(=O)CCC(Nc2ccc3ncc(-c4cccc(OC(F)(F)F)c4)n3n2)CC1` [8-14, 4-((3-(3-(Trifluoromethoxy)pheny/)imidazo[1,2-]pyridazin-6-yl)amino)tetrahydro-2H-thiopyran 1,1-dioxide]: the IC50 under setting [1] was 1.19 µM.
Compound `CC(C)(O)[C@H]1CC[C@H](Oc2ccc3ncc(-c4cccc(Cl)c4)n3n2)CC1` [8-77, 2-(trans-4-((3-(3-chlorophenyl)imidazo[1,2-b]pyridazin-6-yl)oxy)cyclohexyl)propan-2-ol] returned an IC50 of […].
In the case of `O=C1CC(CNc2ccc3ncc(-c4cccc(OC(F)(F)F)c4)n3n2)CCN1` (stereo not shown) [8-23, 4-(((3-(3-(Trifluoromethoxy)phenyl)imidazo[1,2-b]pyridazin-6-yl)amino)methyl)piperidin-2-one], the IC50 under setting [1] turned out to be 1.63 µM.
As for `O=S1(=O)CCC(CNc2ccn3ncc(-c4cccc(C(F)(F)F)c4)c3n2)CC1` [8-59, 4-(((3-(3-(Trifluoromethyl)phenyl)pyrazolo[1,5-a]pyrimidin-5-yl)amino)methyl)tetrahydro-2H-thiopyran 1,1-dioxide], under setting [1], the IC50 is 0.111 µM.
Regarding `CC(C)(O)CNc1ccc2ncc(-c3cccc(OC(F)(F)F)c3)n2n1` [8-6, 2-Methyl-1-((3-(3-(trifluoromethoxy)phenyl)imidazo[1.2-b]pyridazin-6-yl)amino)propan-2-ol], the IC50 under setting [1] worked out at 0.03 µM.
Take `CO[C@H]1CC[C@H](Nc2ccn3ncc(-c4cccc(OC(F)(F)F)c4)c3n2)CC1` [8-49, 4-(trans-Methoxycyclohexyl)-3-(3-(trifluoromethoxy)phenyl)pyazolo[1,5-a]pyrimidin-5-amine]: under setting [1], the IC50 was 0.378 µM.
Turning to `O=S1(=O)CCC(CNc2ccc3nnc(-c4cccc(C(F)(F)F)c4)n3c2)CC1` [8-111], the IC50 under setting [2] was above 30 µM.
Take `O[C@H]1CC[C@H](Nc2ccc3nnc(-c4cccc(C(F)(F)F)c4)n3c2)CC1` [8-107, 4-((3-(3-(Trifluoromethyl)phenyl)-[1,2,4]triazolo[4,3-a]pyridin-6-yl)amino)-trans-cyclohexanol]: the IC50 under setting [3] was 3.95 µM.
As for `CC(C)(O)[C@H]1CC[C@H](Nc2ccc3ncc(-c4cccc(F)c4)n3n2)CC1` [8-75, 2-(trans-4-((3-(3-fluorophenyl)imidazo[1,2-b]pyridazin-6-yl)amino)cyclohexyl)propan-2-ol], the half-inhibitory concentration (IC50) under setting [1] was 0.056 µM.
For the compound `O=S1(=O)CCN(c2ccc3ncc(-c4cccc(OC(F)(F)F)c4)n3n2)CC1` [8-15, 4-(3-(3-(Trifluoromethoxy)phenyl)imidazo[1,2-b]pyridazin-6-yl)thiomorpholine 1,1-dioxide], the IC50 under setting [1] stood at 2.83 µM.
For `OCCN1CCC(CNc2ccc3ncc(-c4cccc(OC(F)(F)F)c4)n3n2)CC1` [8-27, 2-(4-(((3-(3-(Trifluoromethoxy)phenyl)imidazo[1,2-b]pyridazin-6-yl)amino)methyl)piperidin-1-yl)ethanol], half-maximal inhibition (IC50) required 0.023 µM.
Consider `N[C@H]1CC[C@H](Nc2ccn3ncc(-c4cccc(OC(F)(F)F)c4)c3n2)CC1` [8-52, N-(3-(3-(Trifluoromethoxy)phenyl)pyrazolo[1,5-a]pyrimidin-5-yl)cyclohexane-1,4-trans-diamine], for which the IC50 under setting [1] worked out at 0.005 µM.
With `Clc1cccc(-c2cnc3ccc(NC4CCOCC4)nn23)c1` [8-39, 3-(3-Chlorophenyl)-N-(tetrahydro-2H-pyran-4-yl)imidazo[1,2-b]pyridazin-6-amine], under setting [1], the IC50 stood at 0.048 µM.
On to `O[C@H]1C[C@H](CNc2ccc3ncc(-c4cccc(OC(F)(F)F)c4)n3n2)C1` [8-7, 3-(((3-(3-(Trifluoromethoxy)phenyl)imidazo[1,2-b]pyridazin-6-yl)amino)methyl)-trans-cyclobutanol], for which the IC50 under setting [1] came out at 0.01 µM.
With `FC(F)(F)c1cccc(-c2cnn3ccc(NC4CCOCC4)nc23)c1` [8-58, N-(Tetrahydro-2H-pyran-4-yl)-3-(3-(trifluoromethyl)phenyl)pyrazolo[1,5-a]pyrimidin-5-amine], the IC50 under setting [1] came to 0.149 µM.
As to `FC(F)(F)Oc1cccc(-c2nnc3ccc(N[C@H]4CC[C@@H](Br)CC4)cn23)c1` [8-105, 4-(cis-Bromocyclohexyl)-3-(3-(trifluoromethoxy)phenyl)-(1,2,4]triazolo[4,3-a]pyridin-6-amine], the IC50 under setting [3] amounted to 2.49 µM.
As for `O=S1(=O)CCC(CNc2ccn3ncc(-c4cccc(OC(F)(F)F)c4)c3n2)CC1` [8-51, 4-(((3-(3-(Trifluoromethoxy)phenyl)pyrazolo[1,5-a]pyrimidin-5-y/)amino)methyl)tetrahydro-2H-thiopyran 1,1-dioxide], the IC50 under setting [1] came out at 0.148 µM.
With `CC(C)O[C@H]1CC[C@H](Nc2ccc3ncc(-c4cccc(OC(F)(F)F)c4)n3n2)CC1` [8-16, 4-(trans-Isopropoxycyclohexyl)-3-(3-(trifluoromethoxy)phenyl)imidazo[1,2-b]pyridazin-6-amine], the IC50 under setting [1] came out at 0.503 µM.
With `CC(C)(O)[C@H]1CC[C@H](Nc2ccc3nnc(-c4cccc(OC(F)(F)F)c4)n3c2)CC1` [8-101], under setting [3], the half-maximal inhibitory concentration (IC50) was 0.488 µM.
Regarding `FC(F)(F)Oc1cccc(-c2cnc3ccc(NCC4CCSCC4)nn23)c1` [8-18, N-((tetrahydro-2H-thiopyran-4-yl)methyl)-3-(3-(trifluoromethoxy)phenyl)imidazo[1,2-b]pyridazin-6-amine], the concentration for half-maximal inhibition (IC50) under setting [1] was determined as 0.053 µM.
Regarding `NC1CCCC(Nc2ccc3ncc(-c4cccc(Cl)c4)n3n2)C1` (stereo not shown) [8-70, N^1-(3-(3-chlorophenyl)imidazo[1,2-b]pyridazin-6-yl)cyclohexane-1,3-diamine], the IC50 under setting [1] came out at 0.008 µM.
In the case of `N[C@H]1CCCN(c2ccn3ncc(-c4cccc(OC(F)(F)F)c4)c3n2)C1` [8-53, (S)-1-(3-(3-(Trifluoromethoxy)phenyl)pyrazolo[1,5-a]pyrimidin-5-yl)piperidin-3-amine], the IC50 under setting [1] was 0.132 µM.
Consider `N[C@H]1CCCN(c2ccc3ncc(-c4cccc(Cl)c4)n3n2)C1` [8-71, (S)-1-(3-(3-chlorophenyl)imidazo[1,2-b]pyridazin-6-yl)piperidin-3-amine], for which the IC50 under setting [1] is 0.012 µM.
On to `CC(C)(O)CCNc1ccc2ncc(-c3cccc(OC(F)(F)F)c3)n2n1` [8-3, 2-Methyl-4-((3-(3-(trifluoromethoxy)phenyl)imidazo[1,2-b]pyridazin-6-yl)amino)butan-2-ol], for which the IC50 under setting [1] is 0.03 µM.
Same read-out and setting: the result for `NCC1CCN(c2ccc3ncc(-c4cccc(OC(F)(F)F)c4)n3n2)C(=O)C1` (stereo not shown) [8-24, 4-(Aminomethyl)-1-(3-(3-(trifluoromethoxy)phenyl)imidazo[1,2-b]pyridazin-6-y/)piperidin-2-one] reads 0.034 µM.
As for `FC(F)(F)Oc1cccc(-c2nnc3ccc(NC4CCOCC4)cn23)c1` [8-102, N-(Tetrahydro-2H-pyran-4-yl)-3-(3-(trifluoromethoxy)phenyl)-[1,2,4]triazolo[4,3-a]pyridin-6-amine], the IC50 under setting [3] turned out to be 3.25 µM.
For the compound `Clc1cccc(-c2cnn3ccc(NC4CCOCC4)nc23)c1` [8-65, 3-(3-Chlorophenyl)-N-(tetrahydro-2H-pyran-4-yl)pyrazolo[1,5-a]pyrimidin-5-amine], the half-maximal inhibitory concentration (IC50) under setting [1] was 0.186 µM.
Consider `CC(C)(O)[C@H]1CC[C@H](Nc2ccn3ncc(-c4cccc(C(F)(F)F)c4)c3n2)CC1` [8-56], for which the IC50 under setting [1] turned out to be 0.017 µM.
As for `OCCOc1ccc2nnc(-c3cccc(C(F)(F)F)c3)n2c1` [8-112, 2-((3-(3-(trifluoromethyl)phenyl)-[1,2,4]triazolo[4,3-a]pyridin-6-yl)oxy)ethanol], the IC50 under setting [2] was above 30 µM.
For `CN1CCC(CNc2ccn3ncc(-c4cccc(OC(F)(F)F)c4)c3n2)CC1` [8-67, N-((1-Methylpiperidin-4-yl)methyl)-3-(3-(trifluoromethoxy)phenyl)pyrazolo[1,5-a]pyrimidin-5-amine], the IC50 under setting [1] was 0.045 µM.
Same read-out and setting: the result for `FC(F)(F)c1cccc(-c2cnc3ccc(NC4CCOCC4)nn23)c1` [8-33, N-(Tetrahydro-2H-pyran-4-yl)-3-(3-(trifluoromethyl)phenyl)imidazo[1,2-b]pyridazin-6-amine] reads 0.033 µM; that for `O[C@H]1CC[C@H](Oc2ccc3ncc(-c4cccc(OC(F)(F)F)c4)n3n2)CC1` [8-4, 4-((3-(3-(Trifluoromethoxy)phenyl)imidazo[1,2-b]pyridazin-6-yl)oxy)-trans-cyclohexanol], 0.007 µM; that for `CC(C)(O)CCOc1ccc2ncc(-c3cccc(OC(F)(F)F)c3)n2n1` [8-41, 2-Methyl-4-((3-(3-(Trifluoromethoxy)phenyl)imidazo[1,2-b]pyridazin-6-yl)oxy)butan-2-ol], 0.226 µM.
Turning to `O=S1(=O)CCC(CNc2ccc3ncc(-c4cccc(Cl)c4)n3n2)CC1` [8-40], the 50% inhibitory concentration (IC50) under setting [1] came to 0.2 µM.
Regarding `O=S1(=O)CCC(CNc2ccn3ncc(-c4cccc(Cl)c4)c3n2)CC1` [8-66, 4-(((3-(3-Chlorophenyl)pyrazolo[1,5-a]pyrimidin-5-yl)amino)methyl)tetrahydro-2H-thiopyran 1.1-dioxide], the IC50 under setting [1] came out at 0.164 µM.
As to `O[C@H]1CC[C@H](Nc2ccc3nnc(-c4cccc(OC(F)(F)F)c4)n3c2)CC1` [8-104, 4-((3-(3-(Trifluoromethoxy)phenyl)-[1,2,4]triazolo[4,3-a]pyridin-6-yl)amino)-trans-cyclohexanol], the IC50 under setting [3] worked out at 0.684 µM.

The term IC50 denotes the concentration that inhibits the measured activity by half.
